This passage reports relative viability results from the supplement of paper PMC10307832.

Common to all, as to experiment: relative viability (nuclei count vs DMSO), 5 days (fraction); higher = more cells survive
Compound in the assay “17-AAG + AZD7762”: C=CCNC1=C2C[C@@H](C)C[C@H](OC)[C@H](O)[C@@H](C)/C=C(\C)[C@H](OC(N)=O)[C@@H](OC)/C=C\C=C(/C)C(=O)NC(=CC1=O)C2=O [17-AAG] + NC(=O)Nc1cc(-c2cccc(F)c2)sc1C(=O)N[C@H]1CCCNC1 [AZD7762] (partner 0.2 µM)
The procedure, abridged: (§1)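 Relative viability was taken as the ratio of nuclei in treated wells to nuclei in vehicle wells. Lung cancer cell lines in 1536-well plates received compounds by pin tool one day after seeding, either one drug alone or a fixed anchor-drug dose plus five library-drug doses (not always all listed) in √10 steps. Nuclei were counted on 4× images after 5 days of treatment, and values are medians of duplicate plates.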

Compound in the assay “17-AAG + Palbociclib”: C=CCNC1=C2C[C@@H](C)C[C@H](OC)[C@H](O)[C@@H](C)/C=C(\C)[C@H](OC(N)=O)[C@@H](OC)/C=C\C=C(/C)C(=O)NC(=CC1=O)C2=O [17-AAG] + CC(=O)c1c(C)c2cnc(Nc3ccc(N4CCNCC4)cn3)nc2n(C2CCCC2)c1=O [Palbociclib] (partner 0.5 µM)
The method in brief: as §1

Compound in the assay “17-AAG + Vorinostat”: C=CCNC1=C2C[C@@H](C)C[C@H](OC)[C@H](O)[C@@H](C)/C=C(\C)[C@H](OC(N)=O)[C@@H](OC)/C=C\C=C(/C)C(=O)NC(=CC1=O)C2=O [17-AAG] + O=C(CCCCCCC(=O)Nc1ccccc1)NO [Vorinostat] (partner 1 µM)
The method in brief:
as §1

Compound in the assay “17-AAG + Crizotinib”: C=CCNC1=C2C[C@@H](C)C[C@H](OC)[C@H](O)[C@@H](C)/C=C(\C)[C@H](OC(N)=O)[C@@H](OC)/C=C\C=C(/C)C(=O)NC(=CC1=O)C2=O [17-AAG] + C[C@@H](Oc1cc(-c2cnn(C3CCNCC3)c2)cnc1N)c1c(Cl)ccc(F)c1Cl [Crizotinib] (partner 1 µM)
The method in brief: as §1

Take NCI-H1666: the relative viability with 17-AAG + AZD7762 (first compound 0.00128 µM) was 0.725; with 17-AAG + AZD7762 (first compound 0.004048 µM), 0.902; in the assay with 17-AAG + AZD7762 (first compound 0.0128 µM), 0.531; with 17-AAG + AZD7762 (first compound 0.04048 µM), 0.35; with 17-AAG + AZD7762 (first compound 0.128 µM) it was 0.292; in the assay with 17-AAG + Palbociclib (first compound 0.00128 µM) it was 0.618. Also, the relative viability in the assay with 17-AAG + Palbociclib (first compound 0.004048 µM) is 0.672; with 17-AAG + Palbociclib (first compound 0.0128 µM), 0.609; in the assay with 17-AAG + Palbociclib (first compound 0.04048 µM), 0.519; with 17-AAG + Palbociclib (first compound 0.128 µM), 0.526; in the assay with 17-AAG + Vorinostat (first compound 0.00128 µM), 1.1; with 17-AAG + Vorinostat (first compound 0.004048 µM) it was 1.06. Also, the relative viability with 17-AAG + Vorinostat (first compound 0.0128 µM) is 1.02; in the assay with 17-AAG + Vorinostat (first compound 0.04048 µM), 0.498; with 17-AAG + Vorinostat (first compound 0.128 µM), 0.482; with 17-AAG + Crizotinib (first compound 0.00128 µM) it was 1.04; in the assay with 17-AAG + Crizotinib (first compound 0.004048 µM) it was 0.853; with 17-AAG + Crizotinib (first compound 0.0128 µM), 0.288. The relative viability was 0.305 with 17-AAG + Crizotinib (first compound 0.04048 µM) and 0.215 in the assay with 17-AAG + Crizotinib (first compound 0.128 µM).
On to NCI-H1734, for which the relative viability with 17-AAG + AZD7762 (first compound 0.00128 µM) was 0.547; with 17-AAG + AZD7762 (first compound 0.004048 µM), 0.53; with 17-AAG + AZD7762 (first compound 0.0128 µM), 0.268; with 17-AAG + AZD7762 (first compound 0.04048 µM), 0.214; with 17-AAG + AZD7762 (first compound 0.128 µM) it was 0.131; with 17-AAG + Palbociclib (first compound 0.00128 µM), 0.366. The relative viability with 17-AAG + Palbociclib (first compound 0.004048 µM) stood at 0.402; with 17-AAG + Palbociclib (first compound 0.0128 µM), 0.369; with 17-AAG + Palbociclib (first compound 0.04048 µM), 0.303; with 17-AAG + Palbociclib (first compound 0.128 µM) it was 0.175; with 17-AAG + Vorinostat (first compound 0.00128 µM), 0.77; in the assay with 17-AAG + Vorinostat (first compound 0.004048 µM), 0.851. Further, the relative viability in the assay with 17-AAG + Vorinostat (first compound 0.0128 µM) came out at 0.574; in the assay with 17-AAG + Vorinostat (first compound 0.04048 µM) it was 0.271; with 17-AAG + Vorinostat (first compound 0.128 µM), 0.132; in the assay with 17-AAG + Crizotinib (first compound 0.00128 µM), 0.647; with 17-AAG + Crizotinib (first compound 0.004048 µM), 0.681; with 17-AAG + Crizotinib (first compound 0.0128 µM) it was 0.646. Moreover, the relative viability with 17-AAG + Crizotinib (first compound 0.04048 µM) was 0.195; with 17-AAG + Crizotinib (first compound 0.128 µM), 0.142.
As to NCI-H1755, the relative viability with 17-AAG + AZD7762 (first compound 0.00128 µM) stood at 0.47; with 17-AAG + AZD7762 (first compound 0.004048 µM) it was 0.468; with 17-AAG + AZD7762 (first compound 0.0128 µM), 0.362; with 17-AAG + AZD7762 (first compound 0.04048 µM), 0.234; in the assay with 17-AAG + AZD7762 (first compound 0.128 µM), 0.195; with 17-AAG + Palbociclib (first compound 0.00128 µM), 0.435. For the same cell line, the relative viability was 0.443 with 17-AAG + Palbociclib (first compound 0.004048 µM); 0.471 in the assay with 17-AAG + Palbociclib (first compound 0.0128 µM); 0.425 with 17-AAG + Palbociclib (first compound 0.04048 µM); 0.33 with 17-AAG + Palbociclib (first compound 0.128 µM); 0.815 with 17-AAG + Vorinostat (first compound 0.00128 µM); 0.735 with 17-AAG + Vorinostat (first compound 0.004048 µM). The relative viability stood at 0.712 with 17-AAG + Vorinostat (first compound 0.0128 µM); 0.589 with 17-AAG + Vorinostat (first compound 0.04048 µM); 0.243 with 17-AAG + Vorinostat (first compound 0.128 µM); 0.888 with 17-AAG + Crizotinib (first compound 0.00128 µM); 0.841 in the assay with 17-AAG + Crizotinib (first compound 0.004048 µM); 0.84 with 17-AAG + Crizotinib (first compound 0.0128 µM). The relative viability with 17-AAG + Crizotinib (first compound 0.04048 µM) was 0.588; in the assay with 17-AAG + Crizotinib (first compound 0.128 µM), 0.209.
Consider NCI-H1915, for which the relative viability with 17-AAG + AZD7762 (first compound 0.00128 µM) stood at 0.587; with 17-AAG + AZD7762 (first compound 0.004048 µM), 0.719; with 17-AAG + AZD7762 (first compound 0.0128 µM), 0.219; in the assay with 17-AAG + AZD7762 (first compound 0.04048 µM), 0.12; with 17-AAG + AZD7762 (first compound 0.128 µM), 0.0582; in the assay with 17-AAG + Palbociclib (first compound 0.00128 µM) it was 0.533. Further, the relative viability is 0.503 with 17-AAG + Palbociclib (first compound 0.004048 µM); 0.471 with 17-AAG + Palbociclib (first compound 0.0128 µM); 0.253 with 17-AAG + Palbociclib (first compound 0.04048 µM); 0.0774 with 17-AAG + Palbociclib (first compound 0.128 µM); 0.447 with 17-AAG + Vorinostat (first compound 0.00128 µM); 0.465 in the assay with 17-AAG + Vorinostat (first compound 0.004048 µM). Moreover, the relative viability in the assay with 17-AAG + Vorinostat (first compound 0.0128 µM) came out at 0.45; in the assay with 17-AAG + Vorinostat (first compound 0.04048 µM) it was 0.167; with 17-AAG + Vorinostat (first compound 0.128 µM) it was 0.0637; in the assay with 17-AAG + Crizotinib (first compound 0.00128 µM), 0.89; with 17-AAG + Crizotinib (first compound 0.004048 µM), 0.899; in the assay with 17-AAG + Crizotinib (first compound 0.0128 µM), 0.871. Further, the relative viability was determined as 0.878 with 17-AAG + Crizotinib (first compound 0.04048 µM) and 0.223 with 17-AAG + Crizotinib (first compound 0.128 µM).
